#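 Test compounds were applied to cells in 96-well plates for 48 hours at 5 doses. Here, GI50 denotes the concentration required for 50% inhibition of growth.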 Active and inactive are the calls of the source. No stated cut-off is given here; in the data, active = GI50 up to about 1.1 µM and inactive = higher.
# Experiments:
# Test in all cases: NCI anticancer screen, dose series, 48 h
# [1] = system: HCC 2998
# [2] = system: DU-145
# [3] = system: RXF 393
# [4] = system: SF-268
# [5] = system: MDA-MB-231
# [6] = system: Hs-578T
# [7] = system: UACC-257
# [8] = system: NCI-H23
# [9] = system: SF-295
# [10] = system: CCRF-CEM
# [11] = system: A498
# [12] = system: OVCAR-8
# [13] = system: NCI-H522
# [14] = system: NCI-H460
# [15] = system: SNB-75
# [16] = system: RPMI-8226
# [17] = system: HCT-15
# [18] = system: LOX IMVI
# [19] = system: HOP-92
Compound,GI50 [1],GI50 [2],GI50 [3],GI50 [4],GI50 [5],GI50 [6],GI50 [7],GI50 [8],GI50 [9],GI50 [10],GI50 [11],GI50 [12],GI50 [13],GI50 [14],GI50 [15],GI50 [16],GI50 [17] [µM],GI50 [18],GI50 [19]
COc1c(-c2ccc(F)cc2)oc2c(CC(=O)O)cccc2c1=O,> 100 µM (inactive),> 100 µM (inactive),> 100 µM (inactive),> 100 µM (inactive),> 100 µM (inactive),> 100 µM (inactive),> 100 µM (inactive),45.5 µM (inactive),> 100 µM (inactive),> 100 µM (inactive),> 100 µM (inactive),> 100 µM (inactive),> 100 µM (inactive),,,,,,
N#C/C(N)=C(C#N)/N=C/Nc1ccccc1N,> 100 µM (inactive),> 100 µM (inactive),,> 100 µM (inactive),> 100 µM (inactive),> 100 µM (inactive),> 100 µM (inactive),> 100 µM (inactive),> 100 µM (inactive),> 100 µM (inactive),> 100 µM (inactive),> 100 µM (inactive),> 100 µM (inactive),> 100 µM (inactive),> 100 µM (inactive),> 100 µM (inactive),> 100,> 100 µM (inactive),
Nc1nc(N)c2c3c(cnc2n1)CC(c1ccccc1)CC3 (stereo not given),34 µM (inactive),25.4 µM (inactive),17.7 µM (inactive),11.9 µM (inactive),21.4 µM (inactive),30.2 µM (inactive),65.3 µM (inactive),,10.1 µM (inactive),,24.8 µM (inactive),7.16 µM (inactive),14.4 µM (inactive),3.66 µM (inactive),16.4 µM (inactive),> 100 µM (inactive),4.04,1.71 µM (inactive),
CCn1c2ccccc2c2nnc(NCCCO)nc21,,> 100 µM (inactive),57.9 µM (inactive),> 100 µM (inactive),> 100 µM (inactive),50.2 µM (inactive),> 100 µM (inactive),> 100 µM (inactive),> 100 µM (inactive),> 100 µM (inactive),> 100 µM (inactive),> 100 µM (inactive),> 100 µM (inactive),> 100 µM (inactive),44.1 µM (inactive),> 100 µM (inactive),> 100,> 100 µM (inactive),> 100 µM (inactive)
[N-]=[N+]=NC(c1cn(C2CC(O)C(CO)O2)c(=O)[nH]c1=O)C(Cl)I (stereo not given),> 100 µM (inactive),> 100 µM (inactive),> 100 µM (inactive),> 100 µM (inactive),> 100 µM (inactive),> 100 µM (inactive),> 100 µM (inactive),> 100 µM (inactive),> 100 µM (inactive),,> 100 µM (inactive),> 100 µM (inactive),,> 100 µM (inactive),33.3 µM (inactive),> 100 µM (inactive),> 100,,
N#CCCN(C(=O)Nc1ccc(NC(=O)N(CCC#N)c2ccccc2)cc1)c1ccccc1,> 100 µM (inactive),> 100 µM (inactive),92.7 µM (inactive),> 100 µM (inactive),> 100 µM (inactive),> 100 µM (inactive),,> 100 µM (inactive),> 100 µM (inactive),,> 100 µM (inactive),> 100 µM (inactive),> 100 µM (inactive),> 100 µM (inactive),> 100 µM (inactive),> 100 µM (inactive),> 100,> 100 µM (inactive),
COC(=O)CCC1(C)C2CCC1(C)/C(=N/O)C2 (stereo not given),> 100 µM (inactive),> 100 µM (inactive),> 100 µM (inactive),> 100 µM (inactive),> 100 µM (inactive),> 100 µM (inactive),> 100 µM (inactive),> 100 µM (inactive),> 100 µM (inactive),> 100 µM (inactive),,> 100 µM (inactive),> 100 µM (inactive),,> 100 µM (inactive),> 100 µM (inactive),> 100,,

# From ChEMBL document CHEMBL1201862, “PubChem BioAssay data set” (2004)
